Molecules are shown by their SMILES. Some results are limits rather than exact numbers.

T1 sequence (Q93009 whole entry): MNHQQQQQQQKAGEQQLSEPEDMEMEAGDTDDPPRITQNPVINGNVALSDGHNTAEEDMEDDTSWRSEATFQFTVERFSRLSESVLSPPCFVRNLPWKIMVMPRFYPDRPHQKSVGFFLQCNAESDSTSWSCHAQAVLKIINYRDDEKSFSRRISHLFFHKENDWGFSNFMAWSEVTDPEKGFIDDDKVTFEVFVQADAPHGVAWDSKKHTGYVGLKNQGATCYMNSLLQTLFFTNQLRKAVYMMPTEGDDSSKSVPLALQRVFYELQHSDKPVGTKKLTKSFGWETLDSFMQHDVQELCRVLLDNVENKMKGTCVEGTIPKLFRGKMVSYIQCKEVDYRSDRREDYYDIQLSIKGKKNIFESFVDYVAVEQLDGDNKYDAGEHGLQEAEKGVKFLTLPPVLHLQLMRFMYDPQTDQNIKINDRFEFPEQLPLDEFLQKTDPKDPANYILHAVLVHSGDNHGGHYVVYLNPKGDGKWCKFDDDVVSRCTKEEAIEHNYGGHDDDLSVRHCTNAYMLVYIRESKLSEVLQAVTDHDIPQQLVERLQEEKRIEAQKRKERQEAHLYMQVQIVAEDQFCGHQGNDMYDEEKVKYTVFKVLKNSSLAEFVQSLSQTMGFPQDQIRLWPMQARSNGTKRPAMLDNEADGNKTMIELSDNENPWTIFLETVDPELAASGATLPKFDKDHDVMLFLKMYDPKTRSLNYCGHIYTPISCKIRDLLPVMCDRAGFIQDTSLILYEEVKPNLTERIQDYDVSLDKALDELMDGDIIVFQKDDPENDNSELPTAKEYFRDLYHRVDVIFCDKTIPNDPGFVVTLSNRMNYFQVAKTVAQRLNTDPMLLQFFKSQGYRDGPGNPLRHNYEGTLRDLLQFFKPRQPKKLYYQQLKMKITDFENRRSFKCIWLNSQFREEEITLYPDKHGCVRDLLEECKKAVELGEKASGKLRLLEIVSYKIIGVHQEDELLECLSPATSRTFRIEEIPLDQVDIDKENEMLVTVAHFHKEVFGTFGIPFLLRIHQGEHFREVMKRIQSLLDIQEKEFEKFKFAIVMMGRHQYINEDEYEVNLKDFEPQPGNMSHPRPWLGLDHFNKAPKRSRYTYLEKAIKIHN

This assay has as its target T1, USP7 (Homo sapiens, UniProt Q93009).
T1 construct: The USP7 construct was PCR amplified and cloned into a pFLAG-CMV-6a vector (Sigma-Aldrich) with an N-terminal FLAG tag; made in house; host or cells: HEK293T
Briefly: USP7 biochemical IC50 assay (fluorescence polarisation, TAMRA labelled peptide linked to ubiquitin via an iso-peptide bond). To be noted: 30 min pre-incubation of enzyme and compound, read after 2 hr incubation at room temperature, read-out: IC50 range. The procedure: In Vitro USP7 Inhibition Assay
Expression and Purification of USP7
The USP7 construct was PCR amplified and cloned into a pFLAG-CMV-6a vector (Sigma-Aldrich) with an N-terminal FLAG tag. HEK293T cells were transfected with FLAG-USP7 using TransIT-LT1 transfection reagent (Mirus) according to the manufacturer's instructions. Cells were harvested 40 hours after transfection. […] The resin was washed two times with low salt buffer plus protease inhibitors (complete mini, Roche) and phosphatase inhibitors (PhosSTOP mini, Roche) and one time with high salt buffer (20 mM Tris, pH 7.5, 500 mM NaCl, 0.5 mM EDTA, 5 mM beta-mercaptoethanol, protease inhibitors (complete mini, Roche) and phosphatase inhibitors (PhosSTOP mini, Roche). To elute the bound USP7, elution buffer (10 mM Tris, pH 7.5, 150 mM NaCl, 0.5 mM EDTA, 10% glycerol, 0.5% NP40, 5 mM beta-mercaptoethanol, 0.15 mg/ml 3×FLAG peptide (Sigma-Aldrich)) was added to the resin and incubated at 4° C. for 2.5 hours rotating. The resin was centrifuged at 4000 rpm for 30 seconds, and the supernatant containing purified FLAG-USP7 was removed and stored at −80° C.
USP7 Biochemical IC50 Assay
A typical 8-point dilution series would be 100, 30, 10, 3, 1, 0.3, 0.1, 0.03 μM final. […] Either 1 μl of 50% DMSO or diluted compound was added to the plate. USP7 was diluted in reaction buffer (20 mM Tris, pH 7.5, 100 mM NaCl, 0.05% Tween 20, 0.5 mg/ml BSA, 5 mM—beta mercaptoethanol) to the equivalent of 0.0025 μl/well and 10 μl of diluted USP7 was added to the compound. Enzyme and compound were incubated for 30 min at room temp. Reactions were initiated by the addition of 50 nM of TAMRA labelled peptide linked to ubiquitin via an iso-peptide bond as fluorescence polarisation substrate. Reactions were read immediately after addition of substrate and following a 2 hr incubation at room temperature. Readings were performed on a Pherastar Plus (BMG Labtech). λ Excitation 540 nm; λ Emission 590 nm.
A general note: Polarisation of emitted light reports the rotation of a fluorescent probe.
In general, IC50 refers to the midpoint of a concentration-inhibition curve. Consider `CN1CCCC(C(=O)Nc2cc3c(c(-c4ccccc4)c2)CN(C#N)C3)C1` (racemic) [Example 36, N-(2-cyano-7-phenylisoindolin-5-yl)-1-methylpiperidine-3-carboxamide], for which the IC50 is < 1 µM.
As to `CN1CCOC(CNc2nc3c(c(-c4ccccc4)n2)CN(C#N)C3)C1` (single isomer, unassigned) [Example 152, 2-(((4-methylmorpholin-2-yl)methyl)amino)-4-phenyl-5,7-dihydro-6H-pyrrolo[3,4-d]pyrimidine-6-carbonitrile], the IC50 lay in the range of 1 to 10 µM.
The same measure for `CN1CCOC(CNc2nc3c(c(-c4ccccc4)n2)CN(C#N)C3)C1` (single isomer, unassigned) [Example 153, 2-(((4-methylmorpholin-2-yl)methyl)amino)-4-phenyl-5,7-dihydro-6H-pyrrolo[3,4-d]pyrimidine-6-carbonitrile]: < 1 µM.
`CC1c2cccc(-c3ccc(Cl)cc3C(N)=O)c2CN1C#N` (single isomer, unassigned) [Example 258, 5-chloro-2-(2-cyano-1-methylisoindolin-4-yl)benzamide]: the IC50 lay in the range of 10 to 30 µM.
Take `CC1c2cccc(-c3ccc(C#N)cc3C(N)=O)c2CN1C#N` (single isomer, unassigned) [Example 259, 5-cyano-2-(2-cyano-1-methylisoindolin-4-yl)benzamide]: the IC50 fell in the range of 1 to 10 µM.
As for `N#Cc1ccc(-c2cccc3c2CN(C#N)C3)c(C(N)=O)c1` [Example 1, 5-cyano-2-(2-cyanoisoindolin-4-yl)benzamide], the IC50 is 1 to 10 µM.
The same measure for `N#CN1Cc2cccc(-c3ccc(Cl)cc3C(N)=O)c2C1` [Example 2, 5-chloro-2-(2-cyanoisoindolin-4-yl)benzamide]: 1 to 10 µM.
The same measure for `Cc1ccc(-c2cccc3c2CN(C#N)C3)c(C(N)=O)c1` [Example 3, 2-(2-cyanoisoindolin-4-yl)-5-methylbenzamide]: 1 to 10 µM.
The same measure for `N#Cc1ccc(-c2cccc3c2CN(C#N)C3)c(C(=O)N2CCC2)c1` [Example 4, 4-(2-(azetidine-1-carbonyl)-4-cyanophenyl)isoindoline-2-carbonitrile]: 1 to 10 µM; for `Cn1cc(Nc2cc3c(c(-c4ccccc4)c2)CN(C#N)C3)cn1` [Example 5, 6-((1-methyl-1H-pyrazol-4-yl)amino)-4-phenylisoindoline-2-carbonitrile]: < 1 µM.
In the case of `N#CN1Cc2cccc(-c3ccccc3)c2C1` [Example 6, 4-phenylisoindoline-2-carbonitrile], the IC50 was 1 to 10 µM.
For `Cn1cc(-c2cccc3c2CN(C#N)C3)cn1` [Example 7, 4-(1-methyl-1H-pyrazol-4-yl)isoindoline-2-carbonitrile], the IC50 lay within 1 to 10 µM.
The same measure for `N#CN1Cc2cccc(-c3cnc4ccccc4c3)c2C1` [Example 8, 4-(quinolin-3-yl)isoindoline-2-carbonitrile]: 1 to 10 µM.
The same measure for `N#CN1Cc2cccc(-c3cnc4[nH]ccc4c3)c2C1` [Example 9, 4-(1H-pyrrolo[2,3-b]pyridin-5-yl)isoindoline-2-carbonitrile]: 1 to 10 µM.
`CN1CC=C(c2cccc3c2CN(C#N)C3)CC1` [Example 10, 4-(1-methyl-1,2,3,6-tetrahydropyridin-4-yl)isoindoline-2-carbonitrile]: the IC50 lay in the range of 1 to 10 µM.
The same measure for `Cn1cc2cc(-c3cccc4c3CN(C#N)C4)ccc2n1` [Example 11, 4-(2-methyl-2H-indazol-5-yl)isoindoline-2-carbonitrile]: 1 to 10 µM; for `Cc1ccccc1-c1cccc2c1CN(C#N)C2` [Example 12, 4-(o-tolyl)isoindoline-2-carbonitrile]: 1 to 10 µM.
The same measure for `N#Cc1ccc(-c2cccc3c2CN(C#N)C3)cc1` [Example 13, 4-(4-cyanophenyl)isoindoline-2-carbonitrile]: 1 to 10 µM; for `CN1CCC(c2cccc3c2CN(C#N)C3)CC1` [Example 14, 4-(1-methylpiperidin-4-yl)isoindoline-2-carbonitrile]: 30 to 100 µM.

The record behind these values is patent US10683269B2 (MISSION THERAPEUTICS LIMITED, priority 2016, dated 2020).
